# Tested on: LucPpe2m146
# Experiment: Duration of luminescence (signal stability) and effects of media and sera, DTAB, ± pyrophosphate
# Type: biochemical, Photuris pennsylvanica
# Procedure: In some embodiments, the compositions of the invention were added to intact cells to lyse them, and then ATP detected. In other embodiments, conditioned culture media were themselves assayed for ATP. However, the various components of media, such as buffers, sugars, amino acids, pH indicators, salts, etc., as well as the various factors found in serum (equine, bovine, etc.) may inhibit luciferase activity.
# The luciferase-luciferin reaction was initiated by combining 100 μl of the reagent composition composition with 100 μl cell media with serum, varying final concentrations of DTAB (as indicated below in Table Q) and 1.0 μM ATP was added to each reaction plus or minus 10 μM sodium pyrophosphate in wells of a 96-well microtiter luminometer plate; each experimental condition was prepared in triplicate. At various times after initiating the reaction, rlu values were recorded using an Orion microplate luminometer (Berthold Detection Systems; Pforzheim, Germany).
structure (smiles),measurement,setting,value
"CCCCCCCCCCCC[N+](C)(C)C.[Br-] [DTAB, dodecyltrimethylammonium bromide]",Average Relative Light Units,"0.50% DTAB, DMEM + 10% FBS + ATP, 0 min",204771 relative light units
same,Average Relative Light Units,"0.50% DTAB, DMEM + 10% FBS + ATP, 10 min",223493 relative light units
same,Average Relative Light Units,"0.50% DTAB, DMEM + 10% FBS + ATP, 30 min",187757 relative light units
same,Average Relative Light Units,"0.50% DTAB, DMEM + 10% FBS + ATP, 65 min",146766 relative light units
same,Average Relative Light Units,"0.50% DTAB, DMEM + 10% FBS + ATP, 120 min",104150 relative light units
same,Average Relative Light Units,"0.50% DTAB, DMEM + 10% FBS + ATP, 180 min",72609 relative light units
same,Average Relative Light Units,"0.50% DTAB, DMEM + 10% FBS + ATP, 325 min",32307 relative light units
same,Average Relative Light Units,"0.50% DTAB, F12/DME + 10% FBS + ATP, 0 min",13467 relative light units
same,Average Relative Light Units,"0.50% DTAB, F12/DME + 10% FBS + ATP, 10 min",13311 relative light units
same,Average Relative Light Units,"0.50% DTAB, F12/DME + 10% FBS + ATP, 30 min",11348 relative light units
same,Average Relative Light Units,"0.50% DTAB, F12/DME + 10% FBS + ATP, 65 min",9953 relative light units
same,Average Relative Light Units,"0.50% DTAB, F12/DME + 10% FBS + ATP, 120 min",8127 relative light units
same,Average Relative Light Units,"0.50% DTAB, F12/DME + 10% FBS + ATP, 180 min",6538 relative light units
same,Average Relative Light Units,"0.50% DTAB, F12/DME + 10% FBS + ATP, 325 min",3793 relative light units
same,Average Relative Light Units,"0.50% DTAB, F12/DME + 10% HS + ATP, 0 min",88405 relative light units
same,Average Relative Light Units,"0.50% DTAB, F12/DME + 10% HS + ATP, 10 min",82645 relative light units
same,Average Relative Light Units,"0.50% DTAB, F12/DME + 10% HS + ATP, 30 min",70746 relative light units
same,Average Relative Light Units,"0.50% DTAB, F12/DME + 10% HS + ATP, 65 min",58749 relative light units
same,Average Relative Light Units,"0.50% DTAB, F12/DME + 10% HS + ATP, 120 min",44677 relative light units
same,Average Relative Light Units,"0.50% DTAB, F12/DME + 10% HS + ATP, 180 min",33353 relative light units
same,Average Relative Light Units,"0.50% DTAB, F12/DME + 10% HS + ATP, 325 min",17414 relative light units
same,Average Relative Light Units,"0.50% DTAB, RPMI + 10% FBS + ATP, 0 min",44179 relative light units
same,Average Relative Light Units,"0.50% DTAB, RPMI + 10% FBS + ATP, 10 min",43664 relative light units
same,Average Relative Light Units,"0.50% DTAB, RPMI + 10% FBS + ATP, 30 min",35909 relative light units
same,Average Relative Light Units,"0.50% DTAB, RPMI + 10% FBS + ATP, 65 min",26501 relative light units
same,Average Relative Light Units,"0.50% DTAB, RPMI + 10% FBS + ATP, 120 min",16951 relative light units
same,Average Relative Light Units,"0.50% DTAB, RPMI + 10% FBS + ATP, 180 min",10153 relative light units
same,Average Relative Light Units,"0.50% DTAB, RPMI + 10% FBS + ATP, 325 min",3268 relative light units
same,Average Relative Light Units,"0.55% DTAB, DMEM + 10% FBS + ATP, 0 min",52107 relative light units
same,Average Relative Light Units,"0.55% DTAB, DMEM + 10% FBS + ATP, 10 min",59799 relative light units
same,Average Relative Light Units,"0.55% DTAB, DMEM + 10% FBS + ATP, 30 min",51285 relative light units
same,Average Relative Light Units,"0.55% DTAB, DMEM + 10% FBS + ATP, 65 min",42155 relative light units
same,Average Relative Light Units,"0.55% DTAB, DMEM + 10% FBS + ATP, 120 min",32891 relative light units
same,Average Relative Light Units,"0.55% DTAB, DMEM + 10% FBS + ATP, 180 min",24137 relative light units
same,Average Relative Light Units,"0.55% DTAB, DMEM + 10% FBS + ATP, 325 min",12031 relative light units
same,Average Relative Light Units,"0.55% DTAB, F12/DME + 10% FBS + ATP, 0 min",6847 relative light units
same,Average Relative Light Units,"0.55% DTAB, F12/DME + 10% FBS + ATP, 10 min",6952 relative light units
same,Average Relative Light Units,"0.55% DTAB, F12/DME + 10% FBS + ATP, 30 min",6013 relative light units
same,Average Relative Light Units,"0.55% DTAB, F12/DME + 10% FBS + ATP, 65 min",5581 relative light units
same,Average Relative Light Units,"0.55% DTAB, F12/DME + 10% FBS + ATP, 120 min",4891 relative light units
same,Average Relative Light Units,"0.55% DTAB, F12/DME + 10% FBS + ATP, 180 min",4329 relative light units
same,Average Relative Light Units,"0.55% DTAB, F12/DME + 10% FBS + ATP, 325 min",3207 relative light units
same,Average Relative Light Units,"0.55% DTAB, F12/DME + 10% HS + ATP, 0 min",36615 relative light units
same,Average Relative Light Units,"0.55% DTAB, F12/DME + 10% HS + ATP, 10 min",36669 relative light units
same,Average Relative Light Units,"0.55% DTAB, F12/DME + 10% HS + ATP, 30 min",31348 relative light units
same,Average Relative Light Units,"0.55% DTAB, F12/DME + 10% HS + ATP, 65 min",27979 relative light units
same,Average Relative Light Units,"0.55% DTAB, F12/DME + 10% HS + ATP, 120 min",23778 relative light units
same,Average Relative Light Units,"0.55% DTAB, F12/DME + 10% HS + ATP, 180 min",19955 relative light units
same,Average Relative Light Units,"0.55% DTAB, F12/DME + 10% HS + ATP, 325 min",13539 relative light units
same,Average Relative Light Units,"0.55% DTAB, RPMI + 10% FBS + ATP, 0 min",21388 relative light units
same,Average Relative Light Units,"0.55% DTAB, RPMI + 10% FBS + ATP, 10 min",22863 relative light units
same,Average Relative Light Units,"0.55% DTAB, RPMI + 10% FBS + ATP, 30 min",19631 relative light units
same,Average Relative Light Units,"0.55% DTAB, RPMI + 10% FBS + ATP, 65 min",16848 relative light units
same,Average Relative Light Units,"0.55% DTAB, RPMI + 10% FBS + ATP, 120 min",12968 relative light units
same,Average Relative Light Units,"0.55% DTAB, RPMI + 10% FBS + ATP, 180 min",9661 relative light units
same,Average Relative Light Units,"0.55% DTAB, RPMI + 10% FBS + ATP, 325 min",5080 relative light units

# Reference: patent publication US20030104507A1, “Method for detection of ATP” (priority 2001, published 2003)
